Measured values taken from patent US20180311334A1, “Compositions and Methods for Inducing an Immune Response” (Yale University, priority 2017, published 2018).

Experiments:
[1] = system: murine bone marrow-derived macrophages; assay: qPCR of cytokine mRNA in bone marrow-derived macrophages (BMM); format: cell-based, C57BL/6 mice; details: 1 μM soluble xyliquimod, 12 hours, WT and TLR7KO BMM
Protocol: Finally, before leaving the sortase-based xyliquimod incorporation approach behind altogether, it was tested it in a more physiologically relevant experimental system. To this end, stimulations in murine bone marrow-derived macrophages (BMM) were performed and the resulting immune responses were assessed by quantifying expression of IL-1β, a pro-inflammatory cytokine transcriptionally regulated by NFκB. Besides more accurately recapitulating the physiological response to an immune stimulus than the RAW-NFκB-sLuc assay, the primary macrophage model offered two additional advantages over reporter cell lines. First, the dynamic range of qPCR analysis is far greater than that of the luciferase assay, so smaller differences in immune activation can be detected more readily. […]
After stimulation of BMDCs and BMMs, the supernatant was removed, cells were lysed, and RNA was isolated using the RNeasy kit (Qiagen, Germantown, Md.) according to manufacturer's instructions. cDNA was reverse-transcribed with an oligo(dT) primer using Moloney murine leukemia virus reverse transcriptase (MMLV RT). cDNA was analyzed in triplicate by qPCR amplification using SYBR Green Supermix (Life Technologies, Carlsbad, Calif.) on a Bio-Rad CFX96 Real-Time PCR Detection System (Bio-Rad, Hercules, Calif.). […]

WT S. aureus Newman = assay: S. aureus growth in presence of copper (optical density); format: cell-based, Staphylococcus aureus; details: 2 mM copper, 4.25 hours, absorbance at 600 nm
Protocol: WT S. aureus Newman was grown in the presence and absence of 2 mM copper for 4.25 hours. Growth was monitored by optical density: absorbance measurements were taken every 15 minutes at 600 nm.

Molecule | IL-1β mRNA expression [1] | S. aureus growth (WT S. aureus Newman)
CCCCc1nc2c(N)nc3ccccc3c2n1Cc1ccc(CN)cc1 [xyliquimod, 1-(4-(aminomethyl)benzyl)-2-butyl-1Himidazo[4,5-c]quinolin-4-amine] | active in WT and not TLR7KO macrophages | 
copper |  | completely inhibit S. aureus growth
